From patent US6689381B2, “Liposomal benzoquinazoline thymidylate synthase inhibitor formulations” (OSI Pharmaceuticals, Inc., priority 2000, dated 2004)
Where “and” joins values, the source holds several entries; their conditions need not be identical. Equal values may be shown once. Read-outs that look alike come from different tables or passages of the source.

Legend:
[1] = test system: human colon tumor xenograft model (HCT-8, thymidine kinase (TK)-/-); assay type: in vivo; settings: for durable cures: until termination at day 57
Source text: (§1) Female Nu/Nu mice (18-24 g, 10-14 weeks old) were obtained from Harlan Sprague Dawley, and housed in microisolator filtration racks and maintained with filtered acidified water and sterile lab chow ad libitum. The human colon tumor xenograft model (HCT-8, thymidine kinase (TK)−/−) was obtained from Dr. Youcef M. Rustum (Roswell Park, Buffalo, N.Y.), and established in-house as a useful model for evaluation of thymidylate synthase inhibitors. Animals were allowed to acclimate to their new environment for 1 week prior to tumor cell implantation. Tumors were established by injecting harvested tumor cells in a single subcutaneous site on the flank of the mice in the axillary region. The tumors were grown until approximately 200+/−50 mm^3 in size. The animals were then sorted according to body weight, grouped four animals/cage, and tattooed on the tail for permanent identification. Groups consisting of 8 tumor-bearing mice each were administered weekly doses of experimental agents by IV bolus injection through the tail vein. Tumor volumes were determined with vernier caliper measurements taken at right angles using the formula, (L×W^2/2) and body weights, were collected twice weekly. Data was plotted as % change in body weight vs. time in days, and % tumor volume increase vs. days.
(§2) T=(mean) time in days for treated group to reach cutoff size (2 grams)
(§3) C=(mean) time in days for control group to reach cutoff size (2 grams)
(§4) WC is the mean tumor weight of control group at time x
(§5) Wt is mean tumor weight of treated group at time x
% Regression=100 (Wo−Wi)/Wo; where Wo is the mean tumor weight for treated group at the initiation of treatment and Wi=the mean tumor weight for that group at time some time x after treatment. Many times the time x=24-48 hr after the final dose of therapy.
The log10 cell kill (gross)=[T−C value in days/(3.32)(Td)
Where T−C=time difference in days between Treated and Control tumors to reach a defined end point; and Td is the Tumor Volume Doubling time in days from the best-fit straight line from a log-linear growth plot of the control tumors exponential growth (100-800 mg range). The conversion of the T−C values to the net log10 tumor cell kill are provided by subtraction of the duration of the treatment period from the T−C value and then dividing by 3.32×Td.
The initial experiment, designated NMX-427, tested the effects of GW1843U89 at two different dose levels, 50 and 100 mg/kg/day×17 days. The control group received vehicle alone. […] There were two durable cures, one in each of the dose groups, which remained until termination of the experiment at day 57. The side-effect toxicity as measured by gross body weight loss was minimal in both drug-treated groups, and was greatest in […]. […]

[2] = Example 2: single dose plasma pharmacokinetics of free GW1843 and four liposomal formulations, 1 mg/kg iv bolus; assay type: in vivo, Sprague Dawley rats; settings: single 1 mg/kg iv bolus; for GW1843 Plasma Concentration: listed as Free GW1843, 1 mg/kg
Source text: The plasma pharmacokinetics of free GW1843 and 4 different liposome formulations (see Table 1A; GC-1007-27, GC-1020-36, NA-1022-63A, and NA-1022-59A) of GW1843 in rats following a single intravenous bolus administration are compared. The liposome formulations differed by the pH utilized to load the liposome. NX1843 lot nos. GC-1007-27, GC-1020-36, NA-1022-63A, and NA-1022-59A were loaded at pH 7.0, 7.4, 7.3 and 7.5, respectively.
A total of fifteen Sprague Dawley rats were used in the study. Each rat weighed approximately 250 grams. Three animals were assigned to each group (five groups in total). Individual animals were weighed and dosed at 1 mg/kg body weight by intravenous bolus administration into the tail vein while under isoflurene anesthesia. EDTA blood samples were taken at the time points shown in Table 2 while under isoflurene anesthesia and immediately processed into plasma. Plasma was stored at −20° C. until analysis.
Plasma samples were prepared and analyzed for GW1843 by the use of a non-validated HPLC assay. Following methanol precipitation of plasma protein, the soluble GW1843 was separated by C-18 reverse phase column chromatography. Separation was achieved by an isocratic method. Running buffer consisted of 80% acetonitrile and 20% 100 mM ammonium acetate pH=5.3. Area under the peak versus concentration of GW1843 was used to construct the standard curve.
Pharmacokinetic parameters were determined by non-compartmental analysis (WinNonlin version 1.5). Pharmacokinetic parameters were determined for each experimental group using the average concentration versus time values for each group. The following parameters were calculated: Maximum plasma concentration (Cmax); area under the plasma concentration versus time curve extrapolating to infinite time (AUCinf) or to last time point (AUClast); elimation half-life (Elim.T½); mean residence time (MRT) plasma clearance (Cl) and volume of distribution at steady state (Vss).

[3] = test system: human colon tumor xenograft model (HCT-8, thymidine kinase (TK)-/-); experiment: HCT-8 xenograft, NX1843 dose schedule study and combinations with 5-FU, NX211 and GW1843 (Table 27); assay type: in vivo, nude mice
Procedure: as §1, with “The human colon tumor xenograft model (HCT-8, thymidine kinase (TK)−/−) was obtained from Dr. Youcef M. Rustum (Roswell Park, Buffalo, N.Y.), and established in-house as a useful model for evaluation of thymidylate synthase inhibitors.” left out
as §2, §3, §4, §5
% Regression=100 (Wo−Wi)/Wo; where Wo is the mean tumor weight for treated group at the initiation of treatment and Wi=the mean tumor weight for that group at time some time x after treatment.
In addition to these dose groups the free drug was dosed at 100 mg/kg on days 1-5, and repeated for a second week.

[4] = Sprague Dawley, rat, plasma, rats ~250 g, noncompartmental, group average

Cc1nc2ccc3ccc(CNc4ccc5c(c4)CN(C(CCC(=O)O)C(=O)O)C5=O)cc3c2c(=O)[nH]1 (centres unmarked) [GW1843]
log cell kill ([1]; 50 mg/kg/day×17 days): 3.0 | durable cures ([1]; 50 mg/kg/day×17 days): one | log cell kill ([1]; 100 mg/kg/day×17 days): 3.3 | durable cures ([1]; 100 mg/kg/day×17 days): one | GW1843 Plasma Concentration ([2]; 0.083 h, individual rats): 0.76 µg/mL | GW1843 Plasma Concentration ([2]; 0.250 h, individual rats): 0.20 µg/mL and 0.19 µg/mL | GW1843 Plasma Concentration ([2]; 0.500 h, individual rats): 0.11 µg/mL and 0.10 µg/mL | GW1843 Plasma Concentration ([2]; 1.000 h, individual rats): BLQ and 0.06 μg/mL | concentration at 0.083 h ([2]; Sprague Dawley, rat, plasma, iv, 1 mg/kg, 0.083 h, individual rats): 520 ng/mL | concentration at 0.25 h ([2]; Sprague Dawley, rat, plasma, iv, 1 mg/kg, 0.250 h, individual rats): 180 ng/mL | concentration at 0.5 h ([2]; Sprague Dawley, rat, plasma, iv, 1 mg/kg, 0.500 h, individual rats): 100 ng/mL | concentration at 1 h ([2]; Sprague Dawley, rat, plasma, iv, 1 mg/kg, 1.000 h, individual rats): 60 ng/mL | Cmax ([2]; Sprague Dawley, rat, plasma, iv, 1 mg/kg, rats ~250 g, noncompartmental, group average, read-out: Cmax): 1280 ng/mL | half-life ([2]; Sprague Dawley, rat, plasma, iv, 1 mg/kg, rats ~250 g, noncompartmental, group average, read-out: t½ (elimination half-life) (converted)): ~30 min | Cmax ([2]; Sprague Dawley, rat, plasma, iv, 1 mg/kg, rats, text of Example 2, read-out: maximum achieved concentrations (Cmax) in the plasma): 1300 ng/mL | AUC(0-inf) [2, 4]: 263 ng·h/mL | AUC(0-t) [2, 4]: 219 ng·h/mL | MRT inf [2, 4]: 30 min | clearance ([2]; Sprague Dawley, rat, plasma, rats ~250 g, noncompartmental, group average, read-out: Cl (converted)): 63.4 mL/min/kg | Vd ([2]; Sprague Dawley, rat, plasma, rats ~250 g, noncompartmental, group average, read-out: Vss): 1.89 L/kg | clearance ([2]; Sprague Dawley, rat, plasma, rats, text of Example 2, read-out: plasma clearance (converted)): 63.4 mL/min | % TGI ([3]; 100 mg/kg, QD1-5 × 2): 80% | Cures ([3]; 100 mg/kg, QD1-5 × 2): 0 | LCK ([3]; 100 mg/kg, QD1-5 × 2): 2.4 | % Regression day 22 ([3]; 100 mg/kg, QD1-5 × 2, day 22): 0% | log cell kill (LCK) ([3]; iv, NX1843 25 mg/kg d1,8, 15 mg/kg QD(1,3,5)×2 or 7.5 mg/kg QD(1-5)×2, GW1843 100 mg/kg d1-5 ×2, 5FU 100 mg/kg d1,8, NX211 6 mg/kg d1,8, combinations at same doses): 2.4
